Key:
[1] = system: patients with sporadic (non-hereditary) colorectal neoplasia (adenomas); assay: Randomized, double-blind, placebo-controlled study of aspirin on occurrence of large bowel adenomas; type: in vivo, human
From the text: Patients were recruited at nine centers in North America.
By protocol, subjects were to have a complete surveillance colonoscopy 34-40 months after the qualifying examination. At each colonoscopy, the endoscopist recorded the estimated size and location of all polyps and mucosal lesions suspicious for neoplasia as per usual clinical practice. Each lesion was removed and examined histologically at the clinical center and by the study pathologist. Polyps were classified as neoplastic (adenomatous) or non-neoplastic (e.g., hyperplastic) by the study pathologist.
The primary study outcome was the proportion of subjects with one or more colorectal adenomas detected during the period from one year after randomization through the anticipated surveillance follow-up. If a surveillance colonoscopy was not performed during the protocol time window, the last examination at least one year after randomization was taken as the follow-up exam. Pre-specified secondary outcomes were the numbers of large-bowel adenomas and “advanced lesions”: tubulovillous adenomas (25 to 75 percent villous features), villous adenomas (>75 percent villous), large adenomas ([…]), severe dysplasia, or invasive cancer. Separate analyses were also conducted for lesions in the left colorectum (descending colon, sigmoid colon, and rectum) and right colorectum (the remainder of the bowel).

[2] = Serious medical events in the randomized placebo-controlled aspirin study; conditions: for Serious Bleeding, Gastrointestinal / Serious Bleeding, Genitourinary: bleeding leading to hospitalization or surgical intervention
Method: A multi-center, randomized, double-blind, placebo-controlled study was performed that examined the effects of aspirin alone as well as folate treatment combined with aspirin on the occurrence of large bowel adenomas. The study has a 3-by-2 factorial design, investigating aspirin (placebo, 81 mg/day, or 325 mg/day) and folic acid (placebo or 1 mg/day). Patients were recruited at nine centers in North America. Eligible subjects had at least one of the following: (1) one or more histologically confirmed large-bowel adenomas removed within 3 months prior to recruitment, (2) one or more histologically confirmed large-bowel adenomas removed within 16 months before recruitment and a lifetime history of 2 or more confirmed large-bowel adenomas, or (3) a histologically confirmed large-bowel adenoma at least 1 cm in diameter removed within 16 months before recruitment. […] Eligible subjects were between 21 and 80 years old, in good health, and with anticipated colonoscopic follow-up three years after the qualifying examination. Exclusion criteria included a history of a familial colorectal cancer syndrome, invasive large-bowel cancer, malabsorption syndromes, any condition potentially worsened by supplemental aspirin or folic acid, or any condition commonly treated with aspirin, non-steroidal anti-inflammatory drugs (NSAIDs), or folate (e.g., recurrent arthritis, atherosclerotic vascular disease, folic acid deficiency).
Study coordinators at each center maintained contact with the subjects on a regular basis; interval questionnaires regarding possible side effects and medical events were completed every four months by each subject.
Subjects were regularly counseled regarding avoidance of aspirin and other NSAIDs. Lists of products containing aspirin, ibuprofen, or naproxen were provided, and acetaminophen was distributed for treatment of minor febrile illnesses and pain. Every four months, subjects received questionnaires regarding adherence to study treatment; use of medications, over-the-counter drugs and nutritional supplements; and occurrence of symptoms, illnesses, and hospitalizations.
The statistical analysis compared the aspirin treatment groups irrespective of folic acid treatment. Subjects who underwent a follow-up endoscopy at least one year following randomization were included in the analyses. The predefined primary statistical analysis was a 2 degree-of-freedom chi-squared test for a contingency table comparing treatment groups regarding risk of one or more new adenomas. Crude risk ratios and 95 percent confidence intervals were used to compare treatment groups to placebo. Adjusted risk ratios were obtained from log-linear models with age, gender, clinical center, number of lifetime adenomas, and duration of follow-up as covariates. […] Possible modification of treatment effects by baseline characteristics was assessed using interaction terms in the log-linear model. Counts of other clinical endpoints were compared using Fisher's exact test. To compare the effect of aspirin on different types of polyps, a logistic regression model was used with generalized estimating equations (Liang and Zeger Biometrika 1986:13-22) to account for the clustering of multiple endpoints within patients. […] Two-sided P-values <0.05 were considered statistically significant.

**Q.** Which results are given for CC(=O)Oc1ccccc1C(=O)O [aspirin, acetylsalicylic acid]?
**A.** Relative Crude Risk (95% CI) ([1]; Any adenoma, both aspirin groups combined versus placebo): 0.88 (0.77-1.02); incidence of adenomas ([1]; patients randomized to the aspirin groups): significantly lower; Coronary Revascularization ([2]; 81 mg aspirin (N = 377)): 3 no of subjects; Deaths ([2]; 81 mg aspirin (N = 377)): 3 no of subjects; Died (percent) ([2]; 81 mg aspirin (N = 377)): 0.8%; Hospitalization ([2]; 81 mg aspirin (N = 377)): 61 no of subjects; Myocardial Infarction ([2]; 81 mg aspirin (N = 377)): 2 no of subjects; Non-Colorectal Cancer ([2]; 81 mg aspirin (N = 377)): 14 no of subjects; Stroke ([2]; 81 mg aspirin (N = 377)): 2 no of subjects; Serious Bleeding, Gastrointestinal ([2]; 81 mg aspirin (N = 377)): 2 no of subjects; Serious Bleeding, Genitourinary ([2]; 81 mg aspirin (N = 377)): 6 no of subjects; Coronary Revascularization ([2]; 325 mg aspirin (N = 372)): 5 no of subjects; Deaths ([2]; 325 mg aspirin (N = 372)): 4 no of subjects; Died (percent) ([2]; 325 mg aspirin (N = 372)): 1.1%; Hospitalization ([2]; 325 mg aspirin (N = 372)): 57 no of subjects; Myocardial Infarction ([2]; 325 mg aspirin (N = 372)): 4 no of subjects; Non-Colorectal Cancer ([2]; 325 mg aspirin (N = 372)): 9 no of subjects; Stroke ([2]; 325 mg aspirin (N = 372)): 5 no of subjects; Serious Bleeding, Gastrointestinal ([2]; 325 mg aspirin (N = 372)): 4 no of subjects; Serious Bleeding, Genitourinary ([2]; 325 mg aspirin (N = 372)): 2 no of subjects; Hospitalization, cancer and myocardial infarction, occurrence ([2]; aspirin groups versus placebo, differences compatible with chance): somewhat more frequently; patients diagnosed with a stroke (all non-fatal) ([2]; both aspirin groups together, none on placebo): Seven
